Data as given in publication PMC8399847, “Hybrid Quinolinyl Phosphonates as Heterocyclic Carboxylate Isosteres: Synthesis and Biological Evaluation against Topoisomerase 1B (TOP1B)” (Pharmaceuticals, 2021).

Assays:
L. infantum amastigotes = assay: Ex vivo murine splenic explant culture, intramacrophage amastigotes; type: cell-based; conditions: Leishmania infantum, Hec50; intramacrophage amastigotes in splenic explants, 96 h, EC50 ± SD
Method: The effect of the new quinolinylphosphonate derivatives 7 synthesized was assessed on both free-living promastigotes and intramacrophage amastigotes of L. infantum as it is described in experimental protocols. Primary cultures of intramacrophage amastigotes were obtained from splenic explants from 6-weeks infected Balb/c mice with L. infantum-iRFP promastigotes. The infrared fluorescence emitted by both stage forms of the parasite was used as viability criterium, using 0.5% DMSO as negative control (100% viability) and […] AMB as a positive control (0% viability).
The EC50 values of compounds against the amastigote forms were calculated using a cell suspension obtained from spleens extracted from BALB/c mice. Mice had been infected previously with iRFP L. infantum metacyclic promastigotes and sacrificed five weeks after infection. To obtain the cell suspension containing amastigotes, spleens washed with cold phosphate-buffered saline (PBS), were cut into pieces, and incubated with 5 mL of 2 mg/mL collagenase D (Sigma, Darmstadt, Germany), which was prepared in buffer (10 mM HEPES, pH 7.4, 150 mM NaCl, 5 mM KCl, 1 mM MgCl2 and 1.8 mM CaCl2) for 20 min. Subsequently, these cells were passed through a 100 µm cell strainer, collected by centrifugation (500× g for 7 min at 4 °C), washed twice with PBS, and suspended in RPMI medium (Gibco, Thermo Fisher Scientific, MA, USA) supplemented with 10 mM HEPES, 1 mM sodium pyruvate, 1xRPMI 1640 vitamin mix, 10% (v/v) FBS, 50 U/mL penicillin and 50 µg/mL streptomycin, at 37 °C under a 5% CO2 atmosphere.
To assay the effect of the different compounds against amastigotes, which infect splenic cells, these cells were seeded to confluence into 384-well black optical bottom plates (Thermo Scientific, Waltham, MA, USA) in addition to different concentrations of compound to each well. The viability of amastigotes was calculated by recording their fluorescence at 708 nm in an Odyssey (Li-Cor, NE, USA) infrared imaging system, after 96 h of exposure. Plots of the infrared fluorescence against the concentrations of tested compounds were fitted by nonlinear analysis using the Sigma Plot 10.1 statistical package and used to calculate EC50 values. As well as promastigotes viability, the assays were performed in triplicate.

[1] = tested on: leishmanial TOP1B (LTOP1B); assay: LTOP1B relaxation activity assay; type: biochemical, Leishmania; conditions: 100 µM of compound, 1 min
Method: The inhibition of relaxation activity of LTOP1B by the compounds was tested at 100 µM. The reactions were performed for 1 min in the way described in the experimental protocols section. The percentage of inhibition was calculated by measuring the intensity of the band corresponding to the supercoiled DNA when the different DNA topoisomers were separated in an agarose gel.
Purification of leishmanial DNA topoisomerase 1B (LTOP1B) was carried out as reported previously. Shortly, LTOP1B was purified using the deficient in TOP1 activity yeast strain, EKY3 MAT α ura3–52 his3Δ20ting, from the union of the bicistronic expression vector pESC-URA to both subunits of LTOP1B. The yeast cells were grown in a yeast synthetic drop-out medium without uracil (Sigma) supplemented with 2% raffinose (w/v) to OD600: 0.8–1 and induced for 10 h with 2% galactose (w/v). After that, the cells were harvested, washed with cold TEEG buffer (50 mM Tris–HCl pH 7.4, 1 mM EDTA, 1 mM EGTA, 10% glycerol), resuspended in 15 mL of 1× TEEG buffer supplemented with 0.2 M KCl and a protease inhibitors cocktail (Thermo Scientific, Waltham, MA, USA) and lysed. Protein extract obtained was loaded on a 5 mL Heparin Sepharose column (GE Healthcare, MA, USA). LTOP1B enzyme was eluted at 4 °C with a discontinuous gradient of KCl (0.2, 0.4, 0.6 M) in TEEG buffer.
Leishmanial TOP1B activity was tested by the relaxation of supercoiled plasmid DNA assay. Each reaction contained: one unit of purified LTOP1B enzyme, 100 µM of each compound, 0.5 μg of supercoiled pSK DNA, 10 mM Tris-HCl buffer pH 7.5, 5 mM MgCl2, 0.1 mM EDTA, 15 µg/mL bovine serum albumin, and 150 mM KCl. The final volume of each reaction was 20 µL. Reaction mixtures were incubated for 1 min at 37 °C and stopped by the addition of a 4 µL loading buffer (5% sarkosyl, 0.12% bromophenol blue, 25% glycerol). The DNA topoisomers were resolved in 1% agarose gels by electrophoresis in 0.1 M Tris borate EDTA buffer (pH 8.0) at 2 V/cm for 16 h and visualized with UV illumination after ethidium bromide (0.5 μg/mL) staining. The percentage of inhibition was calculated by measuring the intensity of the band corresponding to the supercoiled DNA after separating and staining the different DNA topoisomers. This analysis was performed using the GeneTools from Syngene software (Version 4.3.8, MD, USA).

[2] = tested on: SKOV3 (human ovarian carcinoma); assay: CCK-8 cytotoxicity assay, SKOV3; type: cell-based; conditions: SK-OV-3, 48 h, read-out: Cytotoxicity IC50 Ovarian SKOV3
Method: The cytotoxicity of the newly synthesized quinolinylphosphonates 7 was evaluated in vitro by testing their antiproliferative activities against several human cancer cell lines: A549 (human lung adenocarcinoma cells), SKOV3 (human ovarian carcinoma), and HEK293 (human embryonic kidney). In order to analyze the selective cytotoxicity facing exclusively cancerous cell lines, cytotoxicity against non-cancerous cell lines (MRC-5, lung fibroblast cells) was also evaluated. Cell counting kit (CCK-8) assay was employed to assess growth inhibition and, cell proliferation inhibitory activities of compounds that are listed in Table 1 as IC50 values. […] According to the data presented in Table 1, in general, all these phosphorated derivatives present higher selective cytotoxicity in the A549 cell line than in the other two cell lines, SKOV3 and HEK293, although slight differences are observed compared to human ovarian carcinoma (SKOV3).
Cells were cultured according to the supplier’s instructions, A549 (ATCC® CCL-185), SKOV3 (ATCC® HTB-77), HEK293 (CLS GmbH), MRC-5 (ATCC® CCL-171™). Cells were seeded in 96-well plates at a density of 2–2.5 × 10^3 cells per well and incubated overnight in 0.1 mL of media supplied with 10% Fetal Bovine Serum (Lonza, Basel, Switzerland) in a 5% CO2 incubator at 37 °C. On day 2, drugs (concentration between 0.5–50 μM) were added and samples were incubated for 48 h. After treatment, 10 μL of cell counting kit-8 was added to each well for an additional 2 h incubation at 37 °C. The absorbance of each well was determined by an Automatic Elisa Reader System at 450 nm wavelength. CPT was purchased from Sigma-Aldrich and used as a positive control.

Structure (SMILES)	EC50 (L. infantum amastigotes)	LTOP1B Inhibition [1]	IC50 [2]
CCOP(=O)(OCC)c1ccc2nc(-c3ccc(F)cc3)cc(-c3ccc(C)cc3)c2c1 [7v, Diethyl (2-(4-fluorophenyl)-4-(p-tolyl)quinolin-6-yl)phosphonate]	17.6 ± 7.81 µM	43.25%	41.6 ± 10 µM
CCOP(=O)(OCC)c1ccc2nc(-c3ccc(F)c(F)c3)cc(-c3ccc(C)cc3)c2c1 [7x, Diethyl (2-(3,4-difluorophenyl)-4-(p-tolyl)quinolin-6-yl)phosphonate]	33 ± 6.55 µM	43.84%	> 50 µM
